According to US7166472B2, “Method for the identification of agents that inhibit or promote cataracts and uses thereof” (The General Hospital Corporation, priority 2000, dated 2007):
Numbering of substitutions follows the chain as printed. Values belong to the molecule of their own block, whether it stands above or below them.

Key:
[1] = biological target: T1, recombinant human αB-crystallin (Homo sapiens, UniProt P02511); assay: Recombinant human αB-crystallin cross-linking (SDS-PAGE, silver stain); format: biochemical; conditions: data not shown
T1 construct: gift of Dr. J. Liang, Brigham and Women's Hospital
T1 sequence (P02511 1-175): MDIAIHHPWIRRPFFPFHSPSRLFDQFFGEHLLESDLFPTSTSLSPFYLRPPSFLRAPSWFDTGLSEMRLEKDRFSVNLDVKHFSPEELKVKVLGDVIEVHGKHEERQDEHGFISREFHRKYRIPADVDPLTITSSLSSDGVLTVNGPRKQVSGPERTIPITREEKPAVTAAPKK
Protocol: Various solutions containing 3-HK (10 μM) or other kynurenine pathway metabolites (10 μM), Cu(II)-glycine (10 μM), Fe(III)-citrate (10 μM), and triethylenetetramine (TETA, 200 μM), were added in combinations as indicated. […] After incubation, aliquots of the total lens protein solutions were mixed with sample buffer containing 4% SDS and 5% β-mercaptoethanol, heated to 95° C. for 5 minutes, and loaded at 1 μg/lane on a 10–20% Tricine gel (Novex, San Diego, Calif.). […] For the experiments with recombinant αB-crystallin, aliquots of the protein solutions were mixed with sample running buffer containing NuPAGE sample buffer (Novex, San Diego, Calif.) and 10% β-mercaptoethanol, heated to 95° C. for 5 minutes, spun briefly, then loaded on a NuPAGE 4–12% Bis-Tris polyacrylamide gel at 375 ng/lane and electrophoresed with denaturing 3-(N-morpholino)propanesulfonic acid (MOPS)-SDS running buffer according to the manufacturer's recommendations.
To exclude the effects of other lens proteins on the observed findings in FIG. 5, these interactions with purified recombinant human αB-crystallin were examined.

[2] = Hydrogen peroxide assay (DCF fluorometric); format: biochemical; conditions: for hydrogen peroxide generated: ambient gas conditions, CHELEX-treated PBS, FIG. 4C
Protocol: Hydrogen Peroxide Assay—The fluorometric assay for hydrogen peroxide is based on the dichlorofluorescein diacetate (DCF) method (Molecular Probes, Eugene, Oreg.). The DCF solution (5 mM) in 100% ethanol was deacetylated in the presence of 0.01 M NaOH for 30 minutes and neutralized. Horseradish peroxidase (200 U/ml) was then added and the DCF concentration adjusted to 200 μM in PBS. The reaction solutions were carried out in PBS, pH 7.4, in a 96-well format plate (total volume=300 μL/well) and contained a test compound (KYN, 3-HK, 3-HAA, ANA, or ASC, each at 10 μM), deacetylated DCF (20 μM), and Cu(II)-glycine (1 μM) as indicated, incubated at 37° C. for 60 minutes. […] Abolition of the reading by co-incubation with catalase (1000 U/ml) was used for establishing H2O2 specificity. The fluorescent readings were recorded by a Packard FLURORCOUNT™ fluorescent plate reader with a 485 nm excitation filter and 530 nm emission filter. Concentrations were determined by comparison to a standard curve using reagent grade hydrogen peroxide in CHELEX™ chelating ion exchanae resin-treated PBS buffer, pH 7.4.
Reactions were conducted in the absence of added Cu(II), in the presence of added glycine-complexed Cu(II) (1 μM), in the presence of added glycine-complexed Cu(II) (1 μM) and catalase (1000 U/ml), or with added glycine-complexed Cu(II) (1 μM) and the copper chelator triethylenetetramine (TETA, 200 μM).

[3] = Cyclic voltammetry of kynurenine metabolites with Cu(II); format: physicochemical; conditions: metabolite 100 μM, cupric chloride 25 μM, PBS pH 7.4
Protocol: Cyclic Voltammetry—Cyclic voltammetry was performed at room temperature (22±2° C.) on ambient solutions using an EG&G PAR potentiostat, Model 273. The potentiostat was operated in Ramp Mode, generating a potential staircase waveform with a 0.25 mV step height. The potential window of +0.15 to −0.4V, in which Cu(I) is electroactive, but the metabolites are not, was scanned in both directions at a rate of 100 mV/sec. The current response was passed through a 5.3 Hz low pass filter. A minimum of three cycles were collected for each scan, ensuring the stability of the electrochemical response. The electrochemical cell consisted of an indium/tin oxide working electrode (Delta Technologies) with an active area of 0.32 cm^2, a platinum wire auxiliary electrode, and a Ag/AgCl (1 M KCl) reference electrode (Microelectrodes Inc.). Both the auxiliary and reference electrodes were positioned in the cell in close proximity to the working electrode. The working electrodes were pretreated with successive 10 minute sonications in Alconox (˜8 g/L), 95% ethanol, Milli-Q purified H2O (2×), and PBS (pH 7.4), followed by an overnight soak in PBS (pH 7.4). The ITO electrodes were subsequently “activated” immediately prior to use by successive cycling in PBS for three cycles in each of the following potential windows: +0.15 ? −0.4 V, +0.4 ? −0.4 V, and +1.0 ? −0.4 V. Cupric chloride (25 μM; Allied Chemical) was used as the Cu(II) source. Background voltammograms were obtained on each new electrode before testing the kynurenine pathway metabolites. PBS solutions of KYN, 3-HK, ANA, and 3-HAA (each at 100 μM) were separately scanned with and without added Cu(II) (25 μM). Each experiment also included a scan of Cu(II) (25 μM) in PBS without added test compound. All solutions were tested within minutes of being prepared. Each test was repeated to ensure the reproducibility of the results.
The voltammograms in FIGS. 3A–3D compare 3-HK and 3-HAA to their corresponding non-phenolic analogs, kynurenine (KYN) and anthranilic acid (ANA), in aqueous solutions of Cu(II) at pH 7.4. […] At potentials above +0.15 V, the metabolites undergo direct irreversible oxidation, a reaction that is not considered further here. Cyclic voltammetry of Cu(II) in PBS yielded a current response at ≈−100 mV due to reduction of the metal ion (scan “b” in each panel).

α-crystallin = biological target: T2, α-crystallin (Bos taurus, UniProt P02470+P02510); assay: α-Crystallin modification under longwave ultraviolet illumination; format: biochemical; conditions: exposure of α-crystallin in the presence of longwave ultraviolet illumination
T2 sequence (P02470 1-173): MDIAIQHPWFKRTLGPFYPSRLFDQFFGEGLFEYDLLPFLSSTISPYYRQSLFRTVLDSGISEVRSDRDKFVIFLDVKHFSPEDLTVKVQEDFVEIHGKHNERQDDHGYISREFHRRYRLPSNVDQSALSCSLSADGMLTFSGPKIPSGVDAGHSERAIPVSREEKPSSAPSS
T2 sequence (P02510 1-175): T1 sequence (P02511 1-175) with T40A, F61I, T132A, V152A

αB-crystallin = biological target: T3, αB-crystallin (Bos taurus, UniProt P02510); assay: αB-crystallin cross-linking in total calf lens protein (Western blot); conditions: metabolite 10 μM, no added Cu(II), five days 37° C. dark
T3 sequence (P02510 1-175): T1 sequence (P02511 1-175) with T40A, F61I, T132A, V152A

[4] = Superoxide assay (dihydroethidium fluorometric); format: biochemical; conditions: for effect of Cu(II) on superoxide generation / superoxide production: test compound 10 μM; for effect of Cu(II) on superoxide generation: Cu(II)-glycine 1 μM; for superoxide production: ambient oxygen, dark, 60 minutes
Protocol: Superoxide Assay—The fluorometric assay for superoxide is based upon the dihydroethidium (DHE, HYDROETHDNE™) method (Molecular Probes, Eugene, Oreg.) and used according to the manufacturer's instructions. DHE (1 mM) was freshly prepared in 100% argon-sparged DMSO. The reaction solutions were carried out in PBS, pH 7.4, under ambient gas conditions, in 96-well format plates and contained a test compound (KYN, 3-HK, 3-HAA, and ANA, each at 10 μM), DHE (100 μM), +/− Cu(II)-glycine (1 μM) and incubated at 37EC for 60 minutes. […] Abolition of the reading by co-incubation with superoxide dismutase (1000 U/ml) was used for establishing superoxide specificity. The fluorescent readings were recorded by a Packard FLUOROCOUNT™ fluorescent plate reader with a 510 nm excitation filter and 590 nm emission filter. Potassium superoxide dissolved in degassed DMSO was used as a positive control.

[5] = Metal reduction assay, Cu(II) to Cu(I) (BC/BCA indicator); format: biochemical; conditions: chelator 250 μM
Protocol: Metal Reduction Assays—Assays were performed using a 96-well microtiter plate (Costar, Mass.). Test compounds from the kynurenine pathway (10 μM) or, as a positive control, ascorbic acid (ASC, 10 μM) were co-incubated with either Fe(III)-citrate (25 μM) and the Fe(II) indicator bathophenanthroline disulfonic acid (BP, 250 μM), or Cu(II)-glycine (25 μM) and the Cu(I) indicator bathocuproine disulfonic acid (BC) or bicinchoninic acid (BCA, 250 μM). Incubations were conducted in PBS, pH 7.4, at 37° C. in the dark for one hour. Absorbencies were then measured using a plate reader (SPECTRAmax Plus, Molecular Devices, CA) at the appropriate wavelengths: Fe(II)-BP complex at 535 nm (the known molar absorption coefficient, M535,=22140 M^−1 cm^−1), Cu(I)-BC complex at 483 nm, M483=12250 M^−1cm^−1), or Cu(I)-BCA complex at 562 nm, M562=7700 M^−1cm^−1). In control samples, absorbance from the metal ion and indicator in the absence of test compound and the absorbance of test compound in the presence of metal ions, but in the absence of indicator, were determined. The absorbencies from these controls were deducted from those obtained in the presence of the test compound, metal and indicator to yield the net absorbance (ΔA). Fe(II) or Cu(I) concentrations (μM) were calculated according to the formula: C(μM)=ΔA*10^6/Mλ.
The compounds comprising the kynurenine pathway (FIG. 1) were assayed for their ability to reduce […] and Cu(II) (FIG. 2A). […] Values represent the mean±SD for three independent measurements.

[6] = Metal reduction capacity of tanned calf lens α-crystallin, Cu(II); format: biochemical; conditions: α-crystallin preparation 100 μg/ml, Cu(II)-glycine 25 μM, one hour 37° C.
Protocol: Studies of Tanned Calf Lens Crystalin in Assay of Crystallin Protein for Metal Reduction Capacity—α-Crystallin (10 mg/ml) from calf lens was modified by reaction with 3-HK (100 μM), 3-HAA (100 μM), or ASC (100 μM) in PBS, ph 7.4, for 12 hours at 4° C. in the dark. Control samples were incubated with ascorbic acid (100 μM) or without added reductant. The tanning incubation solutions also contained triethylenetetramine (TETA, 200 μM) to prevent cross-linking of the protein. After incubation, free reductant was removed from the tanned α-crystallin preparations by exhaustive dialysis at 4EC in the dark utilizing PBS, pH 7.4, containing CHELEX™ 100 chelating ion exchange resin (BioRad, Hercules, Calif.). The various modified α-crystallin preparations (100 μg/ml) were co-incubated with either Cu(II)-glycine glycine (25 μM) or Fe(III)-citrate (25 μM) for one hour at 37° C. and assayed for metal reduction capacity using the BC and BP spectrophotometric assay as detailed above. Incubated and dialyzed α-crystallin (100 μg/ml) and untreated α-crystallin (100 μg/ml) preparations were used for procedural control.
3-HK: α-crystallin reduced nearly 100% of the available Cu(II) and approximately 20% of the available Fe(III). 3-HAA: α-crystallin reduced approximately 65% of the available Cu(II).

Molecule: O=C(O)c1ccccc1O [salicylate]
inhibition of αB-crystallin cross-linking by 3-HK or 3-HAA and Cu(II) [1]: did not inhibit

capacity of altered α-crystallin to reduce metal and generate hydrogen peroxide (α-crystallin): dramatically enhanced capacity
αB-crystallin cross-linking (αB-crystallin): does not induce
Molecule: Nc1ccccc1C(=O)C[C@H](N)C(=O)O [KYN, L-kynurenine]
hydrogen peroxide generated [2]: approx. 0.3 μM
Cu(II) reduction wave in presence of metabolite [3]: largely unaffected
effect of Cu(II) on superoxide generation [4]: did not promote
superoxide production [4]: negligible

Molecule: O=C(O)CN(CCN(CC(=O)O)CC(=O)O)CCN(CC(=O)O)CC(=O)O [DTPA, diethylenetriaminepentaacetic acid, reference compound]
effect of chelator on metal reduction by 3-HK, 3-HAA and XA [5]: abolished

Molecule: catalase [reference compound]
effect on hydrogen peroxide generation by 3-HK or 3-HAA ([2]; Cu(II) 1 μM, catalase 1000 U/ml or TETA 200 μM): abolished
inhibition of αB-crystallin cross-linking by 3-HK or 3-HAA and Cu(II) [1]: neither catalase nor superoxide dismutase were capable of inhibiting

Molecule: Nc1ccccc1C(=O)O [ANA, anthranilic acid]
hydrogen peroxide generated [2]: approx. 0.3 μM
Cu(II) reduction wave in presence of metabolite [3]: largely unaffected
effect of Cu(II) on superoxide generation [4]: did not promote
superoxide production [4]: negligible

inhibition of αB-crystallin cross-linking by 3-HK or 3-HAA and Cu(II) [1]: did not inhibit
Molecule: C[S+](C)[O-] [DMSO, dimethyl sulfoxide]

Molecule: superoxide dismutase [reference compound]
inhibition of αB-crystallin cross-linking by 3-HK or 3-HAA and Cu(II) [1]: neither catalase nor superoxide dismutase were capable of inhibiting
effect on superoxide production by 3-HAA ([4]; superoxide dismutase 1000 U/ml): removed

inhibition of αB-crystallin cross-linking by 3-HK or 3-HAA and Cu(II) [1]: did not inhibit
Molecule: OC[C@@H](O)[C@@H](O)[C@H](O)[C@H](O)CO [mannitol]

B1: 3-HAA: α-crystallin: calf lens α-crystallin modified (tanned) by reaction with 3-HAA, free metabolite removed by dialysis (protein, UniProt P02470 1-173; P02510 1-175, looked up)
Alpha-crystallin A chain: T2 sequence (P02470 1-173)
Alpha-crystallin B chain: T1 sequence (P02511 1-175) with T40A, F61I, T132A, V152A
modifications: modified with 3-hydroxyanthranilic acid
notes: calf lens α-crystallin modified (tanned) by reaction with 3-HAA, free metabolite removed by dialysis
reduction of available Cu(II) [6]: approximately 65%
